According to patent US20110045027A1, “Adjuvant” (Glaxo Group Limited, priority 2005, published 2011):

Columns and labels:
mouse skin = assay: In vivo delivery by intradermal injection and luciferase assay (pGL3CMV plasmid); parameters: species or system Balb/c×C3H F1 female mice; settings: FIG. 3, OPTIMEM, 0.5:1 (w/w gemini:DNA)
Source text: Plasmid pGL3CMV is a luciferase expression vector based upon pGL3 Basic, (Promega Corporation., Madison, Wis., USA), where the CMV immediate early promoter drives luciferase expression. The plasmid pGL3CMV was used in all gene expression studies in mouse skin biopsies and has been described in WO03/061636.
Gemini surfactants were mixed with plasmid DNA by drop by drop addition of the diluted gemini surfactant formulation (in OPTIMEM) to the diluted plasmid DNA formulation (in OPTIMEM) at room temperature whilst the mixture was being mixed using a Vortex mixer (Mini Vortexer, VWR). […]
Plasmid DNA was delivered into the skin of Balb/c×C3H F1 female mice. […] Groups of 8-10 animals (or 4 to 5 animals with two injection sites) were analysed for skin gene expression. […]
Skin samples were thawed to room temperature and disrupted in 500 ul of Passive Lysis Buffer™ (Promega Corporation, Madison, Wis., USA) using an IKA Labortechnic Ultra turrax T8 polytron. Luciferase enzyme activity was determined using a luciferase assay kit (Promega). […] Luciferase activity (RLU) was measured as counts per minute on the Victor 2 1420 multilabel HTS counter on the luminescence program (Wallac, Perkin Elmer). Total protein concentration was calculated by a Coomassie Plus protein assay reagent kit (Perbio) using the manufacturer's protocol. […] The absorbance was measured at 595 nm on a Molecular Devices Spectra Max 340. […]

Balb/c mice [1] = assay: Cellular immune responses by IFN-γ / IL2 ELISPOT after immunisation with plasmid p7313iTrng; type: in vivo; settings: Example 48; intradermal delivery, FIGS. 5 to 10
Source text: Plasmid p7313iTrng, is a vector where the CMV immediate early promoter drives the expression of a fusion antigen, RNG, consisting of parts of the HIV reverse transcriptase, nef and gag genes. The plasmid p7313iTrng was used in all immune response studies in mouse (WO03/025003).
Acclimatised 6-8 week old Female Balb/c mice were maintained under general anaesthesia using an oxygen-controlled inhaled Isoflourane mask for application by intradermal injection to the pre-shaved lower back above the base of the tail. Where necessary mice were given Rimadyl (Carprofen) as an analgesic in a sub-cutaneous dose of 5 mg/Kg, diluted 1:10 and delivered at 20 μl/mouse. […]
Mice were killed by cervical dislocation and spleens were collected into ice-cold PBS. […] After two washes in PBS to remove particulate matter the concentration of cells in the single cell suspension was assessed by counting in a Guava Flow Cytometer. […] After overnight culture, IFN-γ or IL2 producing cells were visualised by application of anti-murine IFN-γ-biotin or IL2-biotin labelled antibody (Pharmingen) followed by streptavidin-conjugated alkaline phosphatase and quantitated using image analysis.
Representatives of 3 classes of gemini surfactants were assessed for their ability to induce both cellular and humoral immune responses upon delivery to mouse skin through the intradermal route. […]

Balb/c mice [2] = assay: Humoral responses by ELISA, antigen-specific whole IgG (HIV RNG fusion protein); type: in vivo; settings: Example 48; intradermal delivery, FIG. 11, day 14 post-boost
Protocol: Acclimatised 6-8 week old Female Balb/c mice were maintained under general anaesthesia using an oxygen-controlled inhaled Isoflourane mask for application by intradermal injection to the pre-shaved lower back above the base of the tail. Where necessary mice were given Rimadyl (Carprofen) as an analgesic in a sub-cutaneous dose of 5 mg/Kg, diluted 1:10 and delivered at 20 μl/mouse. Injections of up to 50 μl of freshly formulated DNA with or without gemini surfactant were given via BD 0.5 ml insulin syringes with 29 g needles.
The humoral response was assessed by measuring antigen-specific whole IgG antibody levels (eg. to HIV RNG fusion protein) in the serum samples collected after primary and boost immunisation. […] The amount of bound antibody was determined after 4 further washes (as above) followed by addition of TMB substrate solution (T-8540-Sigma). After 30 minutes at 20° C. protected from light, the reaction is stopped with 1M sulphuric acid and absorbance read at 450 nm. […]
Humoral responses to RNG fusion peptide (WO03/025003), as serum whole IgG, were monitored at day 14 post-boost (FIG. 11). […]
Humoral responses were also analysed in this example. The humoral responses were measured as whole serum IgG and data were collected both after a homologous prime and boost and again after a heterologous boost with NHP Adenovirus p6GRN, see FIG. 42. […]

[3] = Particle size of gemini surfactant solutions by quasi-elastic light scattering (QELS); type: physicochemical; settings: fresh solutions stored at 4° C., particle size at bi-weekly intervals, 10-week study, FIG. 28
Protocol: All gemini surfactants were prepared from lyophilised stocks by vortex re-suspension in pure water at a stock concentration of 1 mg/ml stored at 4° C. Gemini surfactants were diluted either in pure water or were directly diluted in Optimem®1 (GIBCO Invitrogen) for immediate use. Where gemini surfactants were formulated together with other helper lipids such as DOPE, these were co-lyophilised at a 1:1, (w/w) ratio and similarly vortex re-suspended in pure water at a stock concentration of 1 mg/ml stored at 4° C.
(§1) The size of the particles formed by gemini surfactants and their complexes with plasmid DNA was measured by quasi-elastic light scattering (QELS) (Finsy, R., Advances in Colloid and Interface Science (1994) 52 (19 September):79-143; Gittings, M. R., and Saville, D. A., Colloids and Surfaces A: Physicochemical and Engineering Aspects (1998) 141: 111-117). Samples (50 μl) were analysed using a Brookhaven Instruments Corporation particle size analyser (BIC 90 Plus) following the manufacturer's instructions: 10 measurements, each consisting of 10 runs were taken per sample. […] The average particle size was automatically derived from the raw data by the instrument and expressed as the mean hydrodynamic diameter in nanometers (nm). […]
The colloidal properties of gemini surfactant solutions were monitored over time in order to analyse their apparent instability in greater detail. […]

plasmid DNA (pdpSC18) = assay: Particle size of gemini surfactant-plasmid DNA complexes (lipoplexes) by QELS; type: physicochemical; settings: buffers covering pH 6.5 to pH 4.5, FIG. 33
Protocol: Gemini surfactants were mixed with plasmid DNA by drop by drop addition of the diluted gemini surfactant formulation (in OPTIMEM) to the diluted plasmid DNA formulation (in OPTIMEM) at room temperature whilst the mixture was being mixed using a Vortex mixer (Mini Vortexer, VWR). The ratio of gemini surfactant to plasmid DNA was varied from 0.2:1 (w/w) to 4:1 (w/w) so that for a final volume of 50 ul per delivery, the formulation contained 10 ug of plasmid DNA with gemini surfactant at the correct ratio. Gemini: DNA mixtures or complexes were left at room temperature for 15 minutes post mixing to form and were then delivered to animals within 15 to 30 minutes. […]
as §1

SMILES	gene delivery and/or expression in mouse skin versus DNA with DMRIE-C or electroporation (mouse skin)	level of cellular immune responses versus PMED at boost (Balb/c mice [1])	level of humoral immune responses versus PMED at boost (Balb/c mice [2])	storage time for which the solution remained stable before particle formation [3]	pH sensitivity of lipoplexes (particle size versus pH) (plasmid DNA (pdpSC18))
CCCCCCCC/C=C\CCCCCCCC(=O)NCCCN(CCCCN(CCCNC(=O)CCCCCCCCCCCCCCCCC)C(=O)[C@H](N)CCCCN)C(=O)[C@H](N)CCCCN [GSC103 D-Lys, Oleic Acid, Stearic Acid]	exception	–	–	–	–
CCCCCCCC/C=C\CCCCCCCC(=O)NCCCN(CCCCN(CCCNC(=O)CCCCCCC/C=C\CCCCCCCC)C(=O)[C@@H](N)CCCCN)C(=O)[C@@H](N)CCCCN [GSC103-L-Lys]	–	comparable to those induced by PMED at boost	comparable to those induced by PMED at boost	2 weeks	fluctuated with falling pH
